We go through nine molecules from patent publication US4742064A, “Antiviral carbocyclic analogs of xylofuranosylpurines” (Regents of the University of Minnesota, priority 1985, dated 1988).

One series deals with HSV-1. The note with it: prior literature; cited from earlier work.
A further series deals with HSV-2. As to conditions: prior literature; cited from earlier work.
Series [1] has as its system P-388 mouse leukemia cells. Kind of series: P-388 mouse leukemia cell culture cytotoxicity assay. The series is classed as cell-based. As to conditions: for IC50: Mus musculus, P388, P-388 leukemia cells in culture, read-out: ED50 (inhibitory concentration, cytotoxicity); for cytotoxicity (in words) / cytotoxicity relative to the corresponding non-aza analogs 9a and 10a (in words): P-388 mouse leukemia cell culture. The source says:
*Assay Technique: R. G. Almquist and R. Vince, J. Med. Chem., 16, 1396

The subject of a further series is HSV-1 (E-377). Kind of series: cytopathogenic effects (CPE)-inhibition procedure, HSV-1, Vero cells. As to conditions: for VR (virus rating), HSV-1 (E-377): HSV-1 strain E-377, Vero cell monolayers, VR ≥ 1.0 = definite activity, 0.5-0.9 marginal to moderate, < 0.5 usually no significant activity; for antiviral activity against HSV-1 (in words): Table II data.
The test system of the next series is HSV-2 (MS). Kind of series: cytopathogenic effects (CPE)-inhibition procedure, HSV-2, Vero cells. As to conditions: for VR (virus rating), HSV-2 (MS): HSV-2 strain MS, Vero cell monolayers, VR ≥ 1.0 = definite activity, 0.5-0.9 marginal to moderate, < 0.5 usually no significant activity; for antiviral activity against HSV-2 (in words): Table II data.
The next series relates to influenza virus. Kind of series: activity against an influenza virus. The series is classed as cell-based.

“Also recorded” adds a separate entry of the source.

Source text for HSV-1 (E-377): (§1) The analogs were evalulated by a cytopathogenic effects (CPE)-inhibition procedure. The host cell culture systems employed were pre-grown Vero cell monolayers.
(§2) *VR = virus rating: A measurement of selective antiviral activity which
(§3) takes into account the degree of inhibition of virusinduced cytopathogeni
(§4) effects (CPE) and the degree of cytotoxicity produced by the test
(§5) compound, determined by a modification of the method of Ehrlich et al.
(§6) definite (+) antiviral activity, a VR of 0.5-0.9 indicates marginal to
(§7) moderate (+) antiviral activity, and a VR < 0.5 usually indicates no (-)
significant antiviral activity.
Source text for HSV-2 (MS): as §1, §2, §3, §4, §5, §6, §7
significant antiviral activity.

With `Nc1nc(N)c2ncn([C@@H]3C[C@H](CO)[C@@H](O)[C@@H]3O)c2n1` (relative stereo), the “activity against HSV-1 (in words)” value in the series on HSV-1 is reported as “exhibited activity”. Moreover, the “activity against HSV-2 (in words)” value in the series with HSV-2 is “inactive”.

With `Nc1nc(Cl)c2ncn([C@@H]3C[C@H](CO)[C@H](O)[C@H]3O)c2n1` (relative stereo) [Compound 8, (d1)-(1 α, 2 β, 3 α, 5 α)-3-(2-Amino-6-chloro-9H-purin-9-yl)-5-(hydroxymethyl)-1,2-cyclopentanediol], the IC50 in series [1] turned out to be 220 µM.

Take `Nc1nc2c(ncn2[C@@H]2C[C@H](CO)[C@H](O)[C@H]2O)c(=O)[nH]1` (relative stereo) [Compound 9a, (d1)-2-Amino-1,9-dihydro-9-[(1 α,2 β,3 α,4 α)-2,3-dihydroxy-4-(hydroxymethyl)cyclopentyl]-6H-purin-6-one]: in the series on HSV-1 (E-377), the “VR (virus rating), HSV-1 (E-377)” value is on record as 5.6 and the “antiviral activity against HSV-1 (in words)” value was “substantial antiviral activity”. In the series on HSV-1 (E-377) (comparison among analogs of Table II), the “profile of activity in the antiviral assay (in words)” value is “best profile of activity”. In series [1], the IC50 came out at 8.9 µM and the “cytotoxicity (in words)” value is listed as “significant cytotoxicities”. In addition, in the series with HSV-2 (MS), the “VR (virus rating), HSV-2 (MS)” value stood at 3.9 and the “antiviral activity against HSV-2 (in words)” value is on record as “active”.

Turning to `Nc1nc(N)c2ncn([C@@H]3C[C@H](CO)[C@H](O)[C@H]3O)c2n1` (relative stereo) [Compound 10a], in the series on HSV-1 (E-377), the “VR (virus rating), HSV-1 (E-377)” value is on record as 2.7 and the “antiviral activity against HSV-1 (in words)” value is reported as “substantial antiviral activity”. Also, the IC50 in series [1] was 39 µM.

For the molecule `Nc1nc(Cl)c2nnn([C@@H]3C[C@H](CO)[C@H](O)[C@H]3O)c2n1` (relative stereo) [Compound 11, (d1)-(1 α,2 β,3 α,5 α)-3-(5-Amino-7-Chloro-3H-1,2,3-triazalo [4,5-d]pyrimidin-3-yl)-5-(hydroxymethyl)-1,2-cyclopentanediol], in series [1], the IC50 is 50 µM.

For `COc1nc(N)nc2c1nnn2[C@@H]1C[C@H](CO)[C@H](O)[C@H]1O` (relative stereo) [Compound 12, (d1)-(1 α,2 β,3 α,5 α)-3-(5-Amino-7-methoxy-3H-1,2,3-triazalo [4,5-d]pyrimidin-3-yl)-5-(hydroxymethyl)-1,2-cyclopentanediol], the IC50 in series [1] was 63 µM.

For the molecule `Nc1nc2c(nnn2[C@@H]2C[C@H](CO)[C@H](O)[C@H]2O)c(=O)[nH]1` (relative stereo) [Compound 13a, (d1)-5-Amino-3,6-dihydro-3-[(1 α,2 β,3 α,5 α)-2,3-dihydroxy-4-(hydroxymethyl)cyclopentyl]-7H-1,2,3-triazalo[4,5-d]pyrimidin-7-one], in the series with HSV-1 (E-377), the “VR (virus rating), HSV-1 (E-377)” value came to 2.4 and the “antiviral activity against HSV-1 (in words)” value is recorded as “substantial antiviral activity”. Also, in series [1], the IC50 was 1.6 µM; the “cytotoxicity (in words)” value is reported as “inhibition at the lowest concentration; also recorded: significant cytotoxicities”; the “cytotoxicity relative to the corresponding non-aza analogs 9a and 10a (in words)” value is “more active”. Moreover, the “activity against an influenza virus (in words)” value with influenza virus was “significant activity”. Moreover, in the series on HSV-2 (MS), the “VR (virus rating), HSV-2 (MS)” value worked out at 1.3 and the “antiviral activity against HSV-2 (in words)” value is “active”.

As for `Nc1nc(N)c2nnn([C@@H]3C[C@H](CO)[C@H](O)[C@H]3O)c2n1` (relative stereo) [Compound 14a, (d1)-(1 α,2 β,3 α,5 α)-3-(5,7-Diamino-3H-1,2,3-triazalo[4,5-d]pyrimidin-3-yl)-5-(hydroxymethyl)-1,2-cyclopentanediol], in the series on HSV-1 (E-377), the “VR (virus rating), HSV-1 (E-377)” value is 2.0 and the “antiviral activity against HSV-1 (in words)” value is recorded as “substantial antiviral activity”. In addition, in series [1], the IC50 came out at 5.3 µM; the “cytotoxicity (in words)” value was “significant cytotoxicities”; the “cytotoxicity relative to the corresponding non-aza analogs 9a and 10a (in words)” value is “more active”.

`Nc1ncnc2c1ncn2[C@@H]1O[C@H](CO)[C@@H](O)[C@@H]1O.O` [Ara-A, 9-β-D-arabinofuranosyladenine monohydrate, reference compound]: the “VR (virus rating), HSV-1 (E-377)” value in the series on HSV-1 (E-377) was found to be 1.7. The “VR (virus rating), HSV-2 (MS)” value in the series with HSV-2 (MS) came out at 1.6.
